# Calls of active or inactive are those of the source. The calls are words filed in the database; no cut-off is given here.
# Assays:
# Mus musculus = assay: In vivo antiinflammatory activity in mouse assessed as decrease in carrageenan-induced paw edema at 0.30 mmol/kg, ip administered immediately after carrageenan injection measured after 3.5 hrs; format: functional
# [1] = biological target: T1, Prostaglandin G/H synthase 1 (Bos taurus) (UniProt O62664); assay: Inhibition of bovine COX-1 assessed as PGF2-alpha formation using arachidonic acid as substrate at 20 uM by enzyme immunoassay
# T1 sequence (whole entry): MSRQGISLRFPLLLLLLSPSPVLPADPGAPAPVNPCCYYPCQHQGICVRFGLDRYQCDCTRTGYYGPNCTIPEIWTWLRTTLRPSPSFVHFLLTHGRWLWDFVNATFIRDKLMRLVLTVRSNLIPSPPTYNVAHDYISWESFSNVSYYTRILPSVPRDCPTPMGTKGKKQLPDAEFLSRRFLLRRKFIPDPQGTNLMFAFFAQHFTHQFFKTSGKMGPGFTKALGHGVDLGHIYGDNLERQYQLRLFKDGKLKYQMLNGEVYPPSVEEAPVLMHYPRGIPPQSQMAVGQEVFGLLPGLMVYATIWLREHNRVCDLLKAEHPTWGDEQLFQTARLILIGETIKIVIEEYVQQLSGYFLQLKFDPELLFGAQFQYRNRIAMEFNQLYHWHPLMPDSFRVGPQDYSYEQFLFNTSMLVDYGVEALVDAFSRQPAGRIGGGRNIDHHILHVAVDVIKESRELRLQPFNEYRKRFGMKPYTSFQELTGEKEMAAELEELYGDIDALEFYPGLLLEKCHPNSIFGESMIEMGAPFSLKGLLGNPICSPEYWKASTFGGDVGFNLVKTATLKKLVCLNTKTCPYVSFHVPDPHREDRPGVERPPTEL
# Rattus norvegicus [2] = assay: In vivo antidyslipidemic activity against Triton WR 1339-induced hyperlipidemic Wistar rat model assessed as decrease in triglyceride level in plasma at 56 umol/kg, ip administered as single dose 1 hr after Triton WR 1339 challenge measured after 24 hrs; format: functional
# Rattus norvegicus [3] = assay: In vivo antidyslipidemic activity against Triton WR 1339-induced hyperlipidemic Wistar rat model assessed as decrease in total cholesterol level in plasma at 56 umol/kg, ip administered as single dose 1 hr after Triton WR 1339 challenge measured after 24 hrs; format: functional
# Rattus norvegicus [4] = assay: In vivo antidyslipidemic activity against Triton WR 1339-induced hyperlipidemic Wistar rat model assessed as decrease in LDL-cholesterol level in plasma at 56 umol/kg, ip administered as single dose 1 hr after Triton WR 1339 challenge measured after 24 hrs; format: functional
# [5] = test system: Radical scavenging activity; assay: Antioxidant activity assessed as DPPH radical scavenging activity after 30 mins; format: functional
# [6] = Antioxidant activity in rat liver microsome membrane assessed as inhibition of lipid peroxidation after 45 mins by TBARS-based spectrophotometric assay; format: functional, microsomes
# Squalene synthase = biological target: T2, Squalene synthase (Rattus norvegicus, UniProt Q02769); assay: (§1) Inhibition of squalene synthase in rat liver microsomes assessed as decrease in conversion of [3H]FPP to squalene
# T2 sequence (Q02769 whole entry): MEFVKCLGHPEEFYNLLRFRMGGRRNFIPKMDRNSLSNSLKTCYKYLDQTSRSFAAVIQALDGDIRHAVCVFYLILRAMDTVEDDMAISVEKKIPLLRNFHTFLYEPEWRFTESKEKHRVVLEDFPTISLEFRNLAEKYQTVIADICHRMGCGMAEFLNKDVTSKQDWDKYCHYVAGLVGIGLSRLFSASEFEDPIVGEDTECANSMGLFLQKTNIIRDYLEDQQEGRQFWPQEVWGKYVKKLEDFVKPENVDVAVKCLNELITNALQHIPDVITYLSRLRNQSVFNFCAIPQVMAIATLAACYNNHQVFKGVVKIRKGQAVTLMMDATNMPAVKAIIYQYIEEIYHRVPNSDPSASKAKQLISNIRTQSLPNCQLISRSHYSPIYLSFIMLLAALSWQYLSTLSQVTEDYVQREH
# [7] = biological target: T3, Squalene synthase (Rattus norvegicus) (UniProt Q02769); assay: as §1
# T3 sequence (whole entry): T2 sequence (Q02769 whole entry)
# Glycine max = assay: Inhibition of soybean lipoxygenase using sodium linoleate as substrate up to 100 uM measured for 6 mins
# [8] = test system: Radical scavenging activity; assay: Antioxidant activity assessed as DPPH radical scavenging activity up to 50 uM measured within 15 mins; format: functional
# [9] = Inhibition of soybean lipoxygenase using sodium linoleate as substrate measured for 6 mins
# Homo sapiens [10] = organism: Homo sapiens; assay: Antioxidant activity against CuSO4-induced human LDL oxidation assessed as increase in lag time at 0.25 uM by spectrophotometric analysis; format: functional
# Homo sapiens [11] = organism: Homo sapiens; assay: Antioxidant activity against CuSO4-induced human LDL oxidation assessed as delta-lag time at 0.25 uM by spectrophotometric analysis; format: functional
# Homo sapiens [12] = organism: Homo sapiens; assay: Antioxidant activity against CuSO4-induced human LDL oxidation assessed as inhibition of rate of conjugate diene formation at 0.50 uM by spectrophotometric analysis; format: functional
# Homo sapiens [13] = organism: Homo sapiens; assay: Antioxidant activity against CuSO4-induced human LDL oxidation assessed as inhibition of rate of conjugate diene formation at 0.25 uM by spectrophotometric analysis; format: functional
# Homo sapiens [14] = organism: Homo sapiens; assay: Antioxidant activity against CuSO4-induced human LDL oxidation assessed as delta-lag time at 0.50 uM by spectrophotometric analysis; format: functional
# Homo sapiens [15] = organism: Homo sapiens; assay: Antioxidant activity against CuSO4-induced human LDL oxidation assessed as lag time at 0.25 uM by spectrophotometric analysis (reference value: 113 mins); format: functional
# Homo sapiens [16] = organism: Homo sapiens; assay: Antioxidant activity against CuSO4-induced human LDL oxidation assessed as increase in lag time at 1 uM by spectrophotometric analysis; format: functional
# Homo sapiens [17] = organism: Homo sapiens; assay: Antioxidant activity against CuSO4-induced human LDL oxidation assessed as lag time at 0.50 uM by spectrophotometric analysis (reference value: 113 mins); format: functional
# Homo sapiens [18] = organism: Homo sapiens; assay: Antioxidant activity against CuSO4-induced human LDL oxidation assessed as prolongation of lag time by spectrophotometric analysis; format: functional
# Homo sapiens [19] = organism: Homo sapiens; assay: Antioxidant activity against CuSO4-induced human LDL oxidation assessed as inhibition of rate of conjugate diene formation at 1 uM by spectrophotometric analysis; format: functional
# Homo sapiens [20] = organism: Homo sapiens; assay: Antioxidant activity against CuSO4-induced human LDL oxidation assessed as increase in lag time at 0.50 uM by spectrophotometric analysis; format: functional
inhibition [1] [%],IC50 [5] [µM],IC50 [6] [µM],IC50 (Squalene synthase) [µM],inhibition [7],inhibition (Glycine max),SMILES,inhibition in vivo at 56 µmol/kg (Rattus norvegicus [2]) [%],inhibition in vivo at 56 µmol/kg (Rattus norvegicus [3]) [%],inhibition in vivo at 56 µmol/kg (Rattus norvegicus [4]) [%],other results
100,–,–,–,–,–,COc1ccc2c(c1)c(CC(=O)O)c(C)n2C(=O)c1ccc(Cl)cc1 [INDOMETHACIN],–,–,–,inhibition in vivo at 300 µmol/kg (Mus musculus): 54%
90,271,83,–,–,–,CN1CC(O)(c2ccc(-c3ccccc3)cc2)Sc2ccccc21 (configuration not stated),38,58,26,–
36,119,9,–,–,–,CN1CC(O)(c2ccc(-c3ccccc3)cc2)Oc2ccccc21 (configuration not stated),73,62,74,–
–,> 400,14,1.6,Dose-dependent effect,inactive,CC(=O)N1c2ccccc2Sc2ccc(C3(O)CN(C)C4CCCCC4O3)cc21 (racemic),–,–,–,–
55,184,0.55,2.7,Dose-dependent effect,inactive,OC1(c2ccc3c(c2)Nc2ccccc2S3)CN2CCCCC2CO1 (racemic),63,36,58,Activity (Homo sapiens [10]): 35%; TIME (Homo sapiens [11]): 0.65 h; inhibition (Homo sapiens [12]): 20%; Activity [8]: Active; inhibition (Homo sapiens [13]): 0%; TIME (Homo sapiens [14]): 1.5 h; TIME (Homo sapiens [15]): 2.53 h; Activity (Homo sapiens [16]): 100%; TIME (Homo sapiens [17]): 3.38 h; Activity (Homo sapiens [18]): Dose-dependent effect; inhibition (Homo sapiens [19]): 100%; Activity (Homo sapiens [20]): 80%
–,> 400,450,–,–,–,CN1CC(O)(c2ccc(-c3ccccc3)cc2)OC2CCCCC21 (configuration not stated),49,54,51,–
–,> 400,12,16.4,Dose-dependent effect,inactive,CC(=O)N1c2ccccc2Sc2ccc(C3(O)CN4CCCCC4CO3)cc21 (racemic),–,–,–,–

# The next lines start with the compound.
SMILES,inhibition [1] [%],IC50 [5] [µM],IC50 [6] [µM],IC50 (Squalene synthase) [µM],inhibition [7],inhibition (Glycine max),inhibition in vivo at 56 µmol/kg (Rattus norvegicus [2]) [%],inhibition in vivo at 56 µmol/kg (Rattus norvegicus [3]) [%],inhibition in vivo at 56 µmol/kg (Rattus norvegicus [4]) [%],other results
CC(=O)N1c2ccccc2Sc2ccc(C3(O)CN(C)CCO3)cc21 (racemic),–,> 400,36,25.3,Dose-dependent effect,inactive,76,63,48,–
CN1c2ccccc2Sc2ccc(C3(O)CN4CCCCC4CO3)cc21 (racemic),–,> 400,68,2.3,Dose-dependent effect,inactive,71,55,26,–
CN1CC(O)(c2ccc3c(c2)Nc2ccccc2S3)Oc2ccccc21 (configuration not stated),–,337,1.6,3.3,Dose-dependent effect,–,–,–,–,Activity [8]: Active
CN1c2ccccc2Sc2ccc(C3(O)CN(C)C4CCCCC4O3)cc21 (racemic),–,> 400,57,4.7,Dose-dependent effect,inactive,27,26,34,–
CCC(C)(C)C(=O)O[C@H]1C[C@@H](C)C=C2C=C[C@H](C)[C@H](CC[C@@H]3C[C@@H](O)CC(=O)O3)[C@H]21 [SIMVASTATIN],–,–,–,–,–,–,0,75,70,–
COc1ccc2cc([C@H](C)C(=O)O)ccc2c1 [NAPROXEN],30,–,–,–,–,–,–,–,–,inhibition in vivo at 300 µmol/kg (Mus musculus): 51%; IC50 [9]: 24 µM
CN1CCOC(O)(c2ccc3c(c2)N(C)c2ccccc2S3)C1 (racemic),17,> 400,70.2,3.6,Dose-dependent effect,inactive,–,–,–,–
CC(C)(Sc1cc(C(C)(C)C)c(O)c(C(C)(C)C)c1)Sc1cc(C(C)(C)C)c(O)c(C(C)(C)C)c1 [PROBUCOL],–,234,> 1000,–,–,–,11,18,18,–
CC1=CSC(O)(c2ccc3c(c2)Nc2ccccc2S3)CN1C=O (configuration not stated),–,150,0.33,> 50,–,–,–,–,–,Activity [8]: Active
O=c1c(O)c(-c2ccc(O)c(O)c2)oc2cc(O)cc(O)c12 [QUERCETIN],–,96,20,–,–,–,–,–,–,–
